In US9139548B2, “Polycyclic derivatives, preparation process and pharmaceutical use thereof” (Jiangsu Hengrui Medicine Co., Ltd., priority 2012, dated 2015):
pEC50: −log10 of the molar value.

Columns and labels:
GPR40 = target: T1, GPR40 (Homo sapiens, UniProt O14842); assay: Agonist activity on CHO-K1/GPR40 cell (Fluo-4 calcium fluorescence); type: cell-based; conditions: CHO-K1 cell line expressing GPR40, calcium ion fluorescence
T1 construct: host or cells: CHO-K1 (Cell bank of the Chinese Academy of Sciences, GNHa 7), retrovirus infection
T1 sequence (O14842 whole entry): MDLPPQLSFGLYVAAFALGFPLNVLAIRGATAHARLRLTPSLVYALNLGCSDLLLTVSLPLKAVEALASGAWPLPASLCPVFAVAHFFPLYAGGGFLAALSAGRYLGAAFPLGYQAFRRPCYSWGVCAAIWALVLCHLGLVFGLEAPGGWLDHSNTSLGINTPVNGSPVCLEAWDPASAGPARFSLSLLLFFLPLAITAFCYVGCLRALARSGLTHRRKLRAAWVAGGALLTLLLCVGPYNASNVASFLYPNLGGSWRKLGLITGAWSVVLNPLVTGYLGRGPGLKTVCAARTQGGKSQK
Excerpt: Agonist activity of compounds of the present disclosure on CHO-K1/GPR40 cell.
The following method was used to determine the agonist activity of compounds of the present disclosure on GPR40. The experiment process is described as follows:
CHO-K1/GPR40 cell (CHO-K1 cell line expressing GPR40, which was constructed using retrovirus infection method, CHO-K1/GPR40 cell for short, wherein CHO-K1 cell was purchased from Cell bank of the Chinese Academy of Sciences, catalogue number GNHa 7; GPR40 cDNA was purchased from Guangzhou FulenGen Co., Ltd, catalogue number EX-UO270-MO2) was inoculated in a 96-well plate with an inoculation density of 25000 cells/well. The cell plate was incubated at 37° C. and 5% CO2 for 24 hours. The cell culture fluid was discarded during the experiment, the cells were washed with buffer solution (1×HBSS+20 mM HEPES pH 7.4) once, 100 μL of Fluo-4 calcium ion dye was quickly added into each well, incubated at 37° C. in the dark for 30 minutes, and then at room temperature for another 30 minutes. During the determination, the baseline value of each well was read at first, and then different concentrations of drug were added to the wells (50 μL/well), and the fluorescence values were then read. The fluorescence excitation wavelength was 494 nm and the emission wavelength was 516 nm. The increase of fluorescence intensity was proportional to calcium ion level in the cells. Cell response rate of each cell/(The maximum fluorescence value−The minimum fluorescence value)/The minimum fluorescence value. EC50 values of the compounds were calculated

[1] = test system: ICR mice fed on a high fat diet; assay: Oral glucose tolerance test (OGTT) in glucose load mice fed on a high fat diet; type: in vivo; conditions: blood glucose AUC, high fat diet ICR male mice
Protocol: ICR mice fed on a high fat diet were used as test animals. The effect of oral administration of a single dose of the compounds of the present disclosure on oral glucose tolerance test (OGTT) of glucose load mice was studied.
Compounds of Example 1, Example 2, Example 13, Example 16, Example 18, Example 19 and Example 26
Healthy ICR male mice were purchased from SINO-BRITSH SIPPR/BK LAB. ANIMAL LTD., CO, License number: SCXK (Shanghai) 2008-0016
The test compounds were added to aqueous 0.5% CMC-Na solution to prepare the corresponding concentration suspension using microwave.
After an overnight fast for 16 hours, male mice fed on a high fat diet were weighed, and the basic blood glucose was determined. The mice were randomly divided into a Blank group and the group of each test compound of the present disclosure according to the level of blood glucose.
The dosage of administration was 20 mg/kg or 40 mg/kg, and the Blank group was administered aqueous 0.5 CMC-Na solution.
20% Glucose solution was administered 15 minutes after intragastrical administration (each mouse was administered 0.4 mL)
The compounds were administered according to the aforesaid dosage to determine the blood glucose value (−15 minutes).
At 15 minutes after administration, 20% glucose solution was administrated at a dose of 2 g/kg and the blood glucose values at 0, 15, 30, 45, 60 and 120 minutes in each mouse were determined by Roche Accu-Chek blood glucose monitoring meter.
Using Excel statistical software: the average value was calculated with avg; SD value was calculated with STDEV; and P value of difference among groups was calculated with TTEST. • AUC calculation formula: AUC=(t15min+t0min)×0.25/2+(t30min+t15min)×0.25/2+(t45min+t30min)×0.25/2+(t60min+t45min)×0.25/2+(t120min+t60min)×1/2 • Wherein t0min, t15min, t30min, t45min, t60min, t120min were blood glucose values determined at different time points.

SMILES	pEC50 (GPR40)	AUC decrease rate % ([1]; single oral dose 40 mg/kg)	AUC decrease rate % ([1]; single oral dose 20 mg/kg)
COC(=O)N1CCC(Oc2cc(C)c(-c3cccc(COc4ccc5c(c4)OC[C@H]5CC(=O)O)c3)c(C)c2)CC1 [Example 23, (S)-2-(6-((4′-((1-(methoxycarbonyl)piperidin-4-yl)oxy)-2′,6′-dimethylbiphenyl-3-yl)methoxy)-2,3-dihydrobenzofuran-3-yl)acetic acid]	6.85		
Cc1cc(O[C@H]2CCOC2)cc(C)c1-c1ccc(F)c(COc2ccc3c(c2)OC[C@H]3CC(=O)O)c1 [Example 18, 2-((S)-6-((4-Fluoro-2′,6′-dimethyl-4′-(((S)-tetrahydrofuran-3-yl)oxy)biphenyl-3-yl)methoxy)-2,3-dihydrobenzofuran-3-yl)acetic acid]	7.55	44.13%	
Cc1cc(OC2CCCC2)cc(C)c1-c1cccc(COc2ccc3c(c2)OC[C@H]3CC(=O)O)c1 [Example 10, (S)-2-(6-((4′-(Cyclopentyloxy)-2′,6′-dimethylbiphenyl-3-yl)methoxy)-2,3-dihydrobenzofuran-3-yl)acetic acid]	6.87		
Cc1cc(O[C@H]2CCOC2)cc(C)c1-c1cccc(COc2ccc3c(c2)OC[C@H]3CC(=O)O)c1C [Example 12, 2-((S)-6-((2,2′,6′-Trimethyl-4′-(((S)-tetrahydrofuran-3-yl)oxy)biphenyl-3-yl)methoxy)-2,3-dihydrobenzofuran-3-yl)acetic acid]	6.95		
Cc1cc(OC2CN(C(=O)[C@H](C)O)C2)cc(C)c1-c1cccc(COc2ccc3c(c2)OC[C@H]3CC(=O)O)c1 [Example 20, 2-((S)-6-((4′-((1-((S)-2-hydroxypropanoyl)azetidin-3-yl)oxy)-2′,6′-dimethylbiphenyl-3-yl)methoxy)-2,3-dihydrobenzofuran-3-yl)acetic acid]	6.85		
Cc1cc(OC2CCN(S(C)(=O)=O)CC2)cc(C)c1-c1cccc(COc2ccc3c(c2)OC[C@H]3CC(=O)O)c1 [Example 5, (S)-2-(6-((2′,6′-Dimethyl-4′-((1-(methylsulfonyl)piperidin-4-yl)oxy)biphenyl-3-yl)methoxy)-2,3-dihydrobenzofuran-3-yl)acetic acid]	6.97		
Cc1cc(OC2CNC2)cc(C)c1-c1cccc(COc2ccc3c(c2)OC[C@H]3CC(=O)O)c1 [Example 16, (S)-2-(6-((4′-(Azetidin-3-yloxy)-2′,6′-dimethylbiphenyl-3-yl)methoxy)-2,3-dihydrobenzofuran-3-yl)acetic acid]	7.82	15.72%	
Cc1cc(OC2CN(C(=O)CO)C2)cc(C)c1-c1cccc(COc2ccc3c(c2)OC[C@H]3CC(=O)O)c1 [Example 21, (S)-2-(6-((4′-((1-(2-hydroxyacetyl)azetidin-3-yl)oxy)-2′,6′-dimethylbiphenyl-3-yl)methoxy)-2,3-dihydrobenzofuran-3-yl)acetic acid]	6.88		
Cc1cc(O[C@@H]2CCOC2)cc(C)c1-c1ccc(F)c(COc2ccc3c(c2)OC[C@H]3CC(=O)O)c1 [Example 26, 2-((S)-6-((4-fluoro-2′,6′-dimethyl-4′-(((R)-tetrahydrofuran-3-yl)oxy)biphenyl-3-yl)methoxy)-2,3-dihydrobenzofuran-3-yl)acetic acid]	7.28	26.06%	
Cc1cc(O[C@@H]2CCOC2)c(F)c(C)c1-c1cccc(COc2ccc3c(c2)OC[C@H]3CC(=O)O)c1 [Example 28, 2-((S)-6-((3′-fluoro-2′,6′-dimethyl-4′-(((R)-tetrahydrofuran-3-yl)oxy)biphenyl-3-yl)methoxy)-2,3-dihydrobenzofuran-3-yl)acetic acid]	7.09		
Cc1cc(O[C@@H]2CCN(S(C)(=O)=O)C2)cc(C)c1-c1cccc(COc2ccc3c(c2)OC[C@H]3CC(=O)O)c1 [Example 11, 2-((S)-6-((2′,6′-Dimethyl-4′-(((R)-1-(methylsulfonyl)pyrrolidin-3-yl)oxy)biphenyl-3-yl)methoxy)-2,3-dihydrobenzofuran-3-yl)acetic acid]	7.14		

The next lines start with results.

pEC50 (GPR40)	SMILES	AUC decrease rate % ([1]; single oral dose 40 mg/kg)	AUC decrease rate % ([1]; single oral dose 20 mg/kg)
7.09	Cc1cc(OC2CCNCC2)cc(C)c1-c1cccc(COc2ccc3c(c2)OC[C@H]3CC(=O)O)c1 [Example 4, (S)-2-(6-((2′,6′-Dimethyl-4′-(piperidin-4-yloxy)biphenyl-3-yl)methoxy)-2,3-dihydrobenzofuran-3-yl)acetic acid]		
7.26	Cc1cc(O[C@H]2CCOC2)c(F)c(C)c1-c1cccc(COc2ccc3c(c2)OC[C@H]3CC(=O)O)c1 [Example 19, 2-((S)-6-((3′-Fluoro-2′,6′-dimethyl-4′-(((S)-tetrahydrofuran-3-yl)oxy)biphenyl-3-yl)methoxy)-2,3-dihydrobenzofuran-3-yl)acetic acid]	36.78%	
7.51	Cc1cc(O[C@@H]2CC[C@H](O)[C@@H]2O)cc(C)c1-c1cccc(COc2ccc3c(c2)OC[C@H]3CC(=O)O)c1 [Example 25, 2-((S)-6-((4′-(((1R,2S,3S)-2,3-dihydroxycyclopentyl)oxy)-2′,6′-dimethylbiphenyl-3-yl)methoxy)-2,3-dihydrobenzofuran-3-yl)acetic acid]		
7.39	Cc1cc(O[C@H]2COC[C@@H]2O)cc(C)c1-c1cccc(COc2ccc3c(c2)OC[C@H]3CC(=O)O)c1 [Example 29, 2-((S)-6-((4′-(((3S,4S)-4-hydroxytetrahydrofuran-3-yl)oxy)-2′,6′-dimethylbiphenyl-3-yl)methoxy)-2,3-dihydrobenzofuran-3-yl)acetic acid]		20.41%
6.80	Cc1cc(O[C@@H]2CCC[C@H]2O)cc(C)c1-c1cccc(COc2ccc3c(c2)OC[C@H]3CC(=O)O)c1 (mixture of isomers) [Example 17, 2-((S)-6-((4′-(((1R,2R)/(1S,2S)-2-Hydroxycyclopentyl)oxy)-2′,6′-dimethylbiphenyl-3-yl)methoxy)-2,3-dihydrobenzofuran-3-yl)acetic acid]		
7.11	Cc1cc(OC2CCN(C(=O)[C@H](C)O)CC2)cc(C)c1-c1cccc(COc2ccc3c(c2)OC[C@H]3CC(=O)O)c1 [Example 22, 2-((S)-6-((4′-((1-((S)-2-hydroxypropanoyl)piperidin-4-yl)oxy)-2′,6′-dimethylbiphenyl-3-yl)methoxy)-2,3-dihydrobenzofuran-3-yl)acetic acid]		
7.28	Cc1ccc(-c2c(C)cc(O[C@H]3CCOC3)cc2C)cc1COc1ccc2c(c1)OC[C@H]2CC(=O)O [Example 27, 2-((S)-6-((2′,4,6′-trimethyl-4′-(((S)-tetrahydrofuran-3-yl)oxy)biphenyl-3-yl)methoxy)-2,3-dihydrobenzofuran-3-yl)acetic acid]		
6.95	Cc1cc(O[C@H]2CCOC2)cc(C)c1-c1cccc(COc2ccc3c(c2)OC[C@@H]3CC(=O)O)c1 [Example 34, 2-((R)-6-((2′,6′-dimethyl-4′-(((S)-tetrahydrofuran-3-yl)oxy)biphenyl-3-yl)methoxy)-2,3-dihydrobenzofuran-3-yl)acetic acid]		
6.95	Cc1cc(O[C@@H]2CCOC2)cc(C)c1-c1cccc(COc2ccc3c(c2)OC[C@@H]3CC(=O)O)c1 [Example 33, 2-((R)-6-((2′,6′-dimethyl-4′-(((R)-tetrahydrofuran-3-yl)oxy)biphenyl-3-yl)methoxy)-2,3-dihydrobenzofuran-3-yl)acetic acid]		
7.06	Cc1cc(O[C@H]2CCN(S(C)(=O)=O)C2)cc(C)c1-c1cccc(COc2ccc3c(c2)OC[C@H]3CC(=O)O)c1 [Example 8, 2-((S)-6-((2′,6′-Dimethyl-4′-(((S)-1-(methylsulfonyl)pyrrolidin-3-yl)oxy)biphenyl-3-yl)methoxy)-2,3-dihydrobenzofuran-3-yl)acetic acid]		
